# Test results from patent publication US9247741B2, “Use of macrocyclic picolinamides as fungicides” (DOW AGROSCIENCES LLC, priority 2013, dated 2016).
# Where two headings read alike, the source gives them in different places.
# Columns and labels:
# Puccinia triticina = assay: Wheat brown rust (PUCCRT) disease control on wheat seedlings; format: in vivo; details: for pest or weed control at 100 ppm: 100 ppm (high volume); for pest or weed control at 121.5 g/ha: 121.5 g/H (low volume track spray)
# Protocol: Technical grades of materials were dissolved in acetone, which were then mixed with nine volumes of water containing 110 ppm Triton X-100. The fungicide solutions were applied onto wheat seedlings using an automated booth sprayer to run-off. All sprayed plants were allowed to air dry prior to further handling. All fungicides were evaluated using the aforementioned method for their activity vs. all target diseases. Wheat leaf blotch and brown rust activity were also evaluated using track spray applications, in which case the fungicides were formulated as EC formulations, containing 0.1% Trycol 5941 in the spray solutions. Wheat plants (variety Yuma) were grown from seed in a greenhouse in 50% mineral soil/50% soil-less Metro mix until the first leaf was fully emerged, with 7-10 seedlings per pot. These plants were inoculated with an aqueous spore suspension of Septoria tritici either prior to or after fungicide treatments. After inoculation the plants were kept in 100% relative humidity (one day in a dark dew chamber followed by two to three days in a lighted dew chamber at 20° C.) to permit spores to germinate and infect the leaf. The plants were then transferred to a greenhouse set at 20° C. for disease to develop. When disease symptoms were fully expressed on the l^st leaves of untreated plants, infection levels were assessed on a scale of 0 to 100 percent disease severity. Percent disease control was calculated using the ratio of disease severity on treated plants relative to untreated plants. Evaluation of Fungicidal Activity: Wheat Brown Rust (Puccinia triticina; Synonym: Puccinia recondite f sp. tritici; Bayer code PUCCRT) Wheat plants (variety Yuma) were grown from seed in a greenhouse in 50% mineral soil/50% soil-less Metro mix until the first leaf was fully emerged, with 7-10 seedlings per pot. These plants were inoculated with an aqueous spore suspension of Puccinia triticina either prior to or after fungicide treatments. After inoculation the plants were kept in a dark dew room at 22° C. with 100% relative humidity overnight to permit spores to germinate and infect the leaf. The plants were then transferred to a greenhouse set at 24° C. for disease to develop. Fungicide formulation, application and disease assessment followed the procedures as described in the Example A.
# [1] = system: Mycosphaerella graminicola; Anamorph: Septoria tritici; assay: Leaf blotch of wheat (SEPTTR) disease control on wheat seedlings; format: in vivo; details: Zymoseptoria tritici, wheat; for pest or weed control at 100 ppm: 100 ppm (high volume); for pest or weed control at 121.5 g/ha: 121.5 g/H (low volume track spray)
# Protocol: Evaluation of Fungicidal Activity: Leaf Blotch of Wheat (Mycosphaerella graminicola; Anamorph: Septoria tritici; Bayer Code […]) Technical grades of materials were dissolved in acetone, which were then mixed with nine volumes of water containing 110 ppm Triton X-100. The fungicide solutions were applied onto wheat seedlings using an automated booth sprayer to run-off. All sprayed plants were allowed to air dry prior to further handling. All fungicides were evaluated using the aforementioned method for their activity vs. all target diseases. Wheat leaf blotch and brown rust activity were also evaluated using track spray applications, in which case the fungicides were formulated as EC formulations, containing 0.1% Trycol 5941 in the spray solutions. Wheat plants (variety Yuma) were grown from seed in a greenhouse in 50% mineral soil/50% soil-less Metro mix until the first leaf was fully emerged, with 7-10 seedlings per pot. These plants were inoculated with an aqueous spore suspension of Septoria tritici either prior to or after fungicide treatments. After inoculation the plants were kept in 100% relative humidity (one day in a dark dew chamber followed by two to three days in a lighted dew chamber at 20° C.) to permit spores to germinate and infect the leaf. The plants were then transferred to a greenhouse set at 20° C. for disease to develop. When disease symptoms were fully expressed on the l^st leaves of untreated plants, infection levels were assessed on a scale of 0 to 100 percent disease severity. Percent disease control was calculated using the ratio of disease severity on treated plants relative to untreated plants.
# [2] = 24 h, 1 Day Protectant, read-out: PUCCRT 1DP disease control rating
# [3] = 72 h, 3 Day Curative, read-out: PUCCRT 3DC disease control rating
# [4] = 24 h, 1 Day Protectant, read-out: SEPTTR 1DP disease control rating
# [5] = 72 h, 3 Day Curative, read-out: SEPTTR 3DC disease control rating
Compound,pest or weed control at 100 ppm (Puccinia triticina; [2]) [%],pest or weed control at 100 ppm (Puccinia triticina; [3]) [%],"pest or weed control at 100 ppm [1, 4] [%]","pest or weed control at 100 ppm [1, 5] [%]",pest or weed control at 121.5 g/ha (Puccinia triticina; [2]) [%],pest or weed control at 121.5 g/ha (Puccinia triticina; [3]) [%],"pest or weed control at 121.5 g/ha [1, 4] [%]","pest or weed control at 121.5 g/ha [1, 5] [%]"
COc1ccnc(C(=O)N[C@H]2CCC[C@H](OC(=O)C3CC3)[C@@H](Cc3ccc(F)cc3)[C@H](C)OC2=O)c1O [Compound 2],> 70,> 70,> 70,< 70,,,,
CCCC[C@H]1[C@H](C)OC(=O)[C@@H](NC(=O)c2nccc(OC)c2O)CCC[C@@H]1OCc1ccccc1 [Compound 47],> 70,> 70,> 70,< 70,,,,
COc1ccnc(C(=O)N[C@H]2CCC[C@H](OCC3CC3)[C@@H](Cc3ccc(F)cc3)[C@H](C)OC2=O)c1O [Compound 26],> 70,> 70,> 70,< 70,,,,
CCCO[C@H]1CCC[C@H](NC(=O)c2nccc(OC)c2O)C(=O)O[C@@H](C)[C@@H]1Cc1ccc(F)cc1 [Compound 37],> 70,> 70,> 70,< 70,,,,
COc1ccnc(C(=O)N[C@H]2CCC[C@H](Oc3ccc(C)cc3)[C@@H](Cc3ccccc3)[C@H](C)OC2=O)c1OC(C)=O [Compound 55],,,,,> 70,> 70,> 70,< 70
CCCC[C@H]1[C@H](C)OC(=O)[C@@H](NC(=O)c2nccc(OC)c2O)CCC[C@@H]1OCC1CC1 [Compound 32],> 70,> 70,> 70,> 70,,,,
CCOCC(=O)OCOc1c(OC)ccnc1C(=O)N[C@H]1CCC[C@H](Oc2ccc(C)cc2)[C@@H](Cc2ccc(F)cc2)[C@H](C)OC1=O [Compound 35],,,,,> 70,< 70,< 70,< 70
COc1ccnc(C(=O)N[C@H]2CCC[C@H](Oc3ccc(C)cc3)[C@@H](Cc3ccc(F)cc3)[C@H](C)OC2=O)c1OCOC(C)=O [Compound 42],,,,,> 70,< 70,> 70,> 70
COc1ccnc(C(=O)N[C@H]2CCC[C@H](OCC(C)C)[C@@H](Cc3ccccc3)[C@H](C)OC2=O)c1OCOC(C)=O [Compound 65],,,,,> 70,> 70,> 70,> 70
CCCC[C@H]1[C@H](C)OC(=O)[C@@H](NC(=O)c2nccc(OC)c2O)CCC[C@@H]1Oc1ccccc1 [Compound 29],> 70,> 70,> 70,< 70,,,,
CCCC[C@H]1[C@H](C)OC(=O)[C@@H](NC(=O)c2nccc(OC)c2OC(C)=O)CCC[C@@H]1OC(=O)C(C)C [Compound 44],,,,,> 70,> 70,> 70,> 70
COc1ccnc(C(=O)N[C@H]2CCC[C@H](OCC3CC3)[C@@H](Cc3ccccc3)[C@H](C)OC2=O)c1OCOC(C)=O [Compound 56],> 70,> 70,> 70,> 70,,,,
CCCC[C@H]1[C@H](C)OC(=O)[C@@H](NC(=O)c2nccc(OC)c2OC(C)=O)CCC[C@@H]1OCc1ccccc1 [Compound 63],,,,,> 70,> 70,> 70,> 70
